Source: patent US20210115061A1, “Small-Molecule HIV-1 Capsid Protein Inhibitors and Methods Using Same” (DREXEL UNIVERSITY, priority 2018, published 2021)
Values joined by “and” are separate entries in the source; they are usually repeats but may differ in a detail not shown here. Equal values may be shown once. “Also recorded” adds a separate entry of the source. Read-outs that look alike come from different tables or passages of the source.

Experiments:
[1] = Metabolic stability in human liver microsomes
Protocol: The compounds were also assessed in human liver microsomal stability assays, plasma protein binding, aqueous solubility (pH 7.4), and evaluation of permeability using the Caco-2 assay.
Analysis in silico of the drug-like properties of the compounds generated in this study is used to drive compound selection. Physicochemical properties (log S, log P, etc.) of all of the new scaffolds are evaluated and compared to PF-74 using StarDrop (Optibrium, UK). The likelihood of metabolism of our new scaffolds, as compared to PF-74, by the common CYP P450 isoforms, was assessed using StarDrop and its P450 module (www dot optibrium dot com/stardrop/stardrop-p450-models dot php). StarDrop's P450 models use quantum mechanical calculations of the activation energy for hydrogen abstraction or direct oxidation, based on the semi-empirical AMi method. These are combined with ligand-based models of the steric and orientation effects of the binding pockets of each P450 isoform on the accessibility of each potential site of metabolism. This total analysis results in predictions of the regioselectivity of metabolism and the lability of each site, a measure of the efficiency of product formation—both important factors governing the rate of metabolism. Compounds of Formula I identified herein that meet the criteria for potency and cytotoxicity are evaluated in in vitro ADME assays (FIG. 8). Specifically, we use microsomal stability and plasma protein binding assessment as reliable indicators of clearance and half-life in vivo. Aqueous solubility is evaluated because low solubility or stability in assay media is detrimental to the development of sound structure-activity-relationships. Low solubility can also hamper our ability to formulate analogs for future in vivo studies. A Caco-2 assay is used to assess cell permeability issues.
T1/2 is the liver microsomal half-life, CLint, CLapp, and CLh are pharmacokinetic clearance parameters.

[2] = Toxicity (CC50) evaluated with the cells utilized in the infection assay; assay type: cell-based; conditions: Table 2
Protocol: (§1) As used herein, the term “CC50” is the half-maximal cytotoxic concentration of a particular compound or agent.
(§2) The potency of compounds of Formula I was evaluated via single round and multicycle HIV-1 replication assays. The single round assay is used as the first level of potency testing. Compounds that display antiviral activity equal to or greater than PF-74 in the primary assay are quantified in the multicycle HIV-1 assays. The multicycle HIV-1 replication assay uses primary isolates and primary human peripheral blood mononuclear cells (PBMCs). Toxicity is evaluated simultaneously with the cells utilized in each assay to allow determination of the therapeutic index (TI=CC50/IC50) of each compound. HIV-1 replication assays are performed in primary PBMCs such as described in Kortager, et al., 2012, J Virol. 86(16):8472-8481, Zentner, et al., 2013, ChemMedChem. 8(3):426-432 and Zentner, et al., 2013, Bioorg Med Chem Lett. 2013; 23(4): 1132-1135.

HIV-1 = experiment: microbe, parasite or virus in culture
Protocol: as §2, with “Compounds that display antiviral activity equal to or greater than PF-74 in the primary assay are quantified in the multicycle HIV-1 assays.” left out

HIV-1 CA hexamer protein = experiment: Direct binding to hexameric HIV-1 CA via SPR; conditions: sensor chip immobilized CA hexamer
Description: A direct binding assay was established using SPR (surface plasmon resonance) (FIGS. 5-7). This assay allows for the confirmation that maintained target specificity is maintained, and the analysis of the kinetic signatures of newly synthesized compounds allows for prioritization of compounds for antiviral testing. […] Therefore, compounds with slower off-rates are prioritized for antiviral testing, as this characteristic should translate to increased potency. Additionally, the interaction of the next-generation compounds with CA proteins from clades A1, A2, B, C, and D (FIG. 11) was quantified. Hexameric versions of these constructs were developed, given their differential assembly properties, compared to the NL4-3 variant. This can be accomplished by modelling of the CA variants and mutation of residues (either A14C/E45C or A42C/T54C) between the N-terminal domains of adjacent subunits. Second, the cross-linked hexamers were prevented from polymerizing further into hyperstable capsid-like structures by mutations (W184A and M185A). The application of this to make hexameric capsomrs was first outlined in Pomillos et al. 2010. J. Mol. Biol. 401(5):985-95. The SPR analysis indicates a compound's potential performance in the therapeutic spectrum testing against other clades in the following sub-aim and provide a facile way in which to rank order compounds for antiviral testing.

[3] = test system: cells utilized in each assay; experiment: Toxicity (CC50) evaluated with the cells utilized in the infection assay; assay type: cell-based; conditions: Table 2
Protocol: as §1, §2

[4] = human liver microsomes, Table 1
[5] = human liver microsomal stability assay, compared to PF-74
[6] = human, liver microsomes, T1/2, liver microsomal half-life, Table 3
[7] = human, liver microsomes, T1/2, metabolic stability of racemates and (R)/(S) enantiomers, Table 5
[8] = racemates and (R)/(S) enantiomers, Table 4
[9] = liver microsomal half-life, Table 3
[10] = metabolic stability of racemates and (R)/(S) enantiomers, Table 5
[11] = inhibition of HIV-1 in the early stages of replication, Table 2

C[C@]12CC[C@H]3[C@@H](CCC4=CC(=O)CC[C@@]43C)[C@@H]1CC[C@@H]2O [Testosterone, reference compound]
CLapp [1, 4]: 74.292 mL/min/kg | Clh [1, 4]: 15.758 mL/min/kg | CLapp ([1]; liver microsomes, Table 3): 74.292 mL/min/kg | CLh ([1]; liver microsomes, Table 3): 15.758 mL/min/kg

CN(C(=O)C(Cc1ccccc1)NC(=O)Cc1n[nH]c2c(N)cccc12)c1ccc2[nH]ncc2c1 (centres unmarked) [Compound C12]
CC50 [2]: 183000 ± 15000 nM | improvement in metabolic stability over PF-74 [1, 5]: 118 fold | microsomal CLint ([1]; human, liver microsomes): 19.5 µL/min/mg | half-life [1, 6]: 71 min | half-life [1, 7]: 71 min | CLapp ([1]; liver microsomes, Table 3): 18.819 mL/min/kg | CLh ([1]; liver microsomes, Table 3): 9.696 mL/min/kg | Eh ([1]; liver microsomes, Table 3): 48.5 | k ([1]; liver microsomes, Table 3): 0.00976 | IC50 (HIV-1; Human immunodeficiency virus 1): 302 ± 167 nM | Therapeutic index (CC50/IC50) (HIV-1; [8]): 606

CC(=O)CC(c1ccccc1)c1c(O)c2ccccc2oc1=O (centres unmarked) [Warfarin, reference compound]
k ([1]; human): −0.00509

CC(C)c1nc2c(n1CC(=O)NC(Cc1ccccc1)C(=O)N(C)c1ccccc1)CCCC2 (centres unmarked) [CX03]
binding to HIV-1 CA hexamer (in words) (HIV-1 CA hexamer protein): relatively low-affinity | improvement in metabolic stability over PF-74 ([1]; human, microsomes): 4 fold | reduction in potency relative to PF-74 (HIV-1; compared to PF-74): 10 fold

Cc1[nH]c2ccccc2c1CC(=O)NC(Cc1ccccc1)C(=O)N(C)c1ccc2[nH]ncc2c1 (centres unmarked) [Compound C11]
CC50 [2]: 366000 ± 29000 nM | improvement in metabolic stability over PF-74 [1, 5]: 34 fold | microsomal CLint ([1]; human, liver microsomes): 78.7 µL/min/mg | half-life [1, 6]: 18 min | half-life [1, 7]: 17.6 min | CLapp ([1]; liver microsomes, Table 3): 75.866 mL/min/kg | CLh ([1]; liver microsomes, Table 3): 15.828 mL/min/kg | Eh ([1]; liver microsomes, Table 3): 79.1 | k ([1]; liver microsomes, Table 3): 0.03934 | IC50 (HIV-1; Human immunodeficiency virus 1): 173 ± 58 nM | Therapeutic index (CC50/IC50) (HIV-1; [8]): 2115

Cc1[nH]c2ccccc2c1CC(=O)N[C@@H](Cc1ccccc1)C(=O)N(C)c1ccccc1 [(S)-PF-74, reference compound]
T1/2 ([1]; human, microsomes): 0.5 min | IC50 (HIV-1; [8]): 80 ± 5.7 nM | Therapeutic index (CC50/IC50) (HIV-1; [8]): 3075

Cc1[nH]c2ccc(S(=O)(=O)F)cc2c1CC(=O)NC(Cc1ccccc1)C(=O)N(C)c1ccc2cn[nH]c2c1 (centres unmarked) [Compound C13]
binding to HIV-1 CA hexamer (in words) (HIV-1 CA hexamer protein): even more potent binding than (S)-C11 | IC50 (HIV-1; Human immunodeficiency virus 1, 24 h, read-out: 24 h post-infection IC50): 23.1 ± 4.29 nM | IC50 (HIV-1; Human immunodeficiency virus 1, 48 h, read-out: 48 h post-infection IC50): 23.9 ± 3.24 nM | IC50 (HIV-1; Human immunodeficiency virus 1, 72 h, read-out: 72 h post-infection IC50): 29.1 ± 5.67 nM

Cc1[nH]c2ccccc2c1CC(=O)N[C@H](Cc1ccccc1)C(=O)N(C)c1ccccc1 [(R)-PF-74, reference compound]
T1/2 ([1]; human, microsomes): 0.6 min

CN(C(=O)C(Cc1ccccc1)NC(=O)Cc1n[nH]c2c(N)cccc12)c1ccccc1 (centres unmarked) [Compound C4]
CC50 [3]: 284000 ± 200 nM | binding to HIV-1 CA hexamer (in words) (HIV-1 CA hexamer protein): interacts with the CA hexamer similarly to PF-74; also recorded: higher affinity | improvement in metabolic stability over PF-74 [1, 5]: 34 fold and 30 fold | T1/2 [1, 9]: 20 min | CLapp ([1]; liver microsomes, Table 3): 67.126 mL/min/kg | CLh ([1]; liver microsomes, Table 3): 15.409 mL/min/kg | CLint ([1]; liver microsomes, Table 3): 69.6 µL/min/mg | Eh ([1]; liver microsomes, Table 3): 77 | k ([1]; liver microsomes, Table 3): 0.03481 | T1/2 [1, 10]: 20 min | increase in the therapeutic index (CC50/IC50) over PF-74 (HIV-1; compared to PF-74): over 7 fold | IC50 (HIV-1; [11]): 51.5 ± 18.4 nM | IC50 (HIV-1; [8]): 51.5 ± 18.4 nM | Therapeutic index (CC50/IC50) (HIV-1; [8]): 5515

Cc1[nH]c2ccccc2c1CC(=O)N[C@@H](Cc1ccccc1)C(=O)N(C)c1ccccc1 [PF-74, reference compound]
CC50 [3]: 73000 ± 15000 nM | binding to HIV-1 CA hexamer (in words) (HIV-1 CA hexamer protein): higher affinity | CLapp [1, 4]: 2249.427 mL/min/kg | CLint [1, 4]: 2332.7 µL/min/mg | Clh [1, 4]: 19.824 mL/min/kg | Eh [1, 4]: 99.12% | T1/2 [1, 4]: 0.59 min | k [1, 4]: 1.166 | metabolic lability (in words) [1, 4]: highly metabolically labile | T1/2 [1, 9]: 0.6 min | CLapp ([1]; liver microsomes, Table 3): 2249.427 mL/min/kg | CLh ([1]; liver microsomes, Table 3): 19.824 mL/min/kg | CLint ([1]; liver microsomes, Table 3): 2332.7 µL/min/mg | Eh ([1]; liver microsomes, Table 3): 99.12 | k ([1]; liver microsomes, Table 3): 1.166 | T1/2 [1, 10]: 0.6 min | IC50 (HIV-1; [11]): 95.1 ± 31.7 nM | IC50 (HIV-1; [8]): 95.1 ± 31.7 nM | Therapeutic index (CC50/IC50) (HIV-1; [8]): 768
